# Measurements from EP2809669B1, “FUSED PYRROLEDICARBOXAMIDES AND THEIR USE AS PHARMACEUTICALS” (SANOFI, priority 2012, dated 2013).
# What was measured:
# upper airway = assay: Effect on upper airway collapsibility in the anesthetized pig (negative pressure challenge); format: in vivo; conditions: 100 µg/kg intravenous bolus injection, negative pressure -150 mbar
# Excerpt: Effect on upper airway collapsibility in the pig Pharmacological efficacy against obstructive apneas was investigated in chloralose-urethane anesthetized pigs (weight range 20 to 35 kg), a large-animal model for obstructive apneas. Negative pressure generated by a negative pressure device was applied with a cannula to the upper part of the trachea for at least three breaths so that the upper airway was exposed to the negative pressure generated by the device. This caused an upper airway collapse as in an obstructive apnea in control animals treated with vehicle only, and in animals of the treatment group before the test compound was administered (baseline situation). Different levels of negative pressure were used to cause a collapse of the upper airway (-50 mbar, -100 mbar and -150 mbar). These negative pressure challenges were repeated several times before vehicle or test compound was given, and at regular intervals after administration of vehicle or test compound. Whether the upper airway was collapsed or open, was judged by airflow measurement and by the tracheal pressure in the cannula inserted into the upper trachea. In case the upper airway was collapsed by the negative pressure, airflow to the negative pressure device was close to zero. As a second parameter tracheal pressure approached the negative pressure generated by the device during upper airway collapse. Test compounds were administered by intravenous bolus injection. After administration of an effective test compound the upper airway was open during the negative pressure challenges, i.e. not collapsed, as indicated by airflow to the negative pressure device and the fact that tracheal pressure now approached atmospheric pressure in the inspiratory phase where upper airway muscles are activated. In vehicle-treated controls upper airway collapse occurred at every negative pressure challenge at -50 mbar, -100 mbar and -150 mbar. In Table 17, the time after administration of compounds of the formula I from the examples above is shown during which no upper airway collapse occurred (time of inhibition of collapsibility) at a negative pressure of -150 mbar. […]
# hERG channel = target: T1, hERG channel (Homo sapiens, UniProt Q12809); assay: Determination of the effect on the hERG channel in CHO cells (whole-cell patch clamp); format: cell-based; conditions: CHO cells stably expressing hERG, room temperature, read-out: IC50 value [µM] for hERG inhibition
# T1 construct: expressed in transfected cells
# T1 sequence (Q12809 whole entry): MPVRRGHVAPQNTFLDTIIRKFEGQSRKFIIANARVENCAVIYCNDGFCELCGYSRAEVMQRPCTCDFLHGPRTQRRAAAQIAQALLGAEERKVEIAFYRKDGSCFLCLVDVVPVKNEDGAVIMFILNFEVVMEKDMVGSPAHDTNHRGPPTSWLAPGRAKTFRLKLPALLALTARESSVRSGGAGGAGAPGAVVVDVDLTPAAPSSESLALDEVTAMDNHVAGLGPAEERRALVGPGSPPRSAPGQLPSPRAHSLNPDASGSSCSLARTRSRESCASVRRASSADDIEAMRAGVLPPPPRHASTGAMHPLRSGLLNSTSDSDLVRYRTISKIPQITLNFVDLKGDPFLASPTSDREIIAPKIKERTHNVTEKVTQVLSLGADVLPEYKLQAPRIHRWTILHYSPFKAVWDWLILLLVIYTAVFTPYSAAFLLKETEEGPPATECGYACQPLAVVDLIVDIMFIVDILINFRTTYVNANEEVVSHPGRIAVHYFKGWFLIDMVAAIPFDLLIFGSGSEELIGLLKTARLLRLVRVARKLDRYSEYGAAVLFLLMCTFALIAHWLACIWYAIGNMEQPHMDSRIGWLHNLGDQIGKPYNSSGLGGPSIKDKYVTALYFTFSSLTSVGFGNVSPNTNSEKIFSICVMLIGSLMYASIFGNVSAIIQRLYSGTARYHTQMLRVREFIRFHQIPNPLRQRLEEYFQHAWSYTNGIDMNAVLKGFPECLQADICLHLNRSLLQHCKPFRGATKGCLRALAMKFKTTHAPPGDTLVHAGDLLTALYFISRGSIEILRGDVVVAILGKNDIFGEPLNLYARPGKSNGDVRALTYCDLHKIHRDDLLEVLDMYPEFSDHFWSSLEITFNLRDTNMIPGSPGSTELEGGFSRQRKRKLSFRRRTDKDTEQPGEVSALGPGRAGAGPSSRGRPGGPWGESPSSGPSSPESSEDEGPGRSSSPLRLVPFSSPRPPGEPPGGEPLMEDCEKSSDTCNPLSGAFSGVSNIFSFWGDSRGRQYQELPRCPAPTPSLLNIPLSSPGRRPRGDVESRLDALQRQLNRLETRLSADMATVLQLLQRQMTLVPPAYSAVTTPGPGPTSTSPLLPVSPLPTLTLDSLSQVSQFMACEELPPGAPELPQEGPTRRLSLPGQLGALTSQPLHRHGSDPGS
# Experimental: Determination of the effect on the hERG channel in CHO cells
# An inhibition of the hERG (human Ether-a-go-go-Related Gene) potassium channel is unwanted because it can lead to dangerous arrhythmias. The effect of compounds of the formula I on the cloned human cardiac hERG channel was evaluated in an in vitro model using a whole-cell patch-clamping technique. CHO (Chinese hamster ovary) cells stably expressing hERG, the potassium channel underlying IKr currents in human hearts, were grown in HAM's F-12 media supplemented with 10 % fetal bovine serum, 1 x penicillin/streptomycin and 500 µg/ml G418 (Invitrogen, Carlsbad, CA, USA) in an atmosphere of 95 % air and 5 % carbon dioxide. Cells used for patch-clamping were seeded on glass or plastic coverslips 12 to 36 hours before use. hERG channel currents were recorded at room temperature using the whole-cell configuration of the patch clamp technique with an Axopatch 200B amplifier (Axon Instruments, Foster City, CA, USA). Briefly, electrodes (3 to 6 MΩ resistance) were fashioned from TW150F glass capillary tubes (World Precision Instruments, Sarasota, FL, USA) and filled with pipette solution (containing 120 mM potassium aspartate, 20 mM potassium chloride, 4 mM adenosine triphosphate disodium salt, 5 mM HEPES, 1 mM magnesium chloride; pH adjusted to 7.2 with potassium hydroxide). hERG currents were initiated by a positive voltage pulse (20 mV) followed by a negative pulse (-40 mV) and were recorded for off-line analyses. Once hERG current from a cell perfused with external solution (containing 130 mM sodium chloride, 5 mM potassium chloride, 2.8 mM sodium acetate, 1 mM magnesium chloride, 10 mM HEPES, 10 mM glucose, 1 mM calcium chloride; pH adjusted to 7.4 with sodium hydroxide) without the test compound, i.e. control solution, was stabilized, the cell was perfused with external solution containing the test compound at specific concentrations. For each concentration from each cell, peak amplitude of the steady-state hERG tail current at -40 mV was measured in picoAmpere (pA). The peak amplitude in pA for each concentration (up to a maximum concentration of 10 µM) was compared with that for the control solution from the same cell and expressed as percent value of the control. From the percent values at multiple concentrations, IC50 values for inhibition of hERG can be determined.
compound,measurement,setting,value
"CC[C@@H](NC(=O)c1cc(C(=O)N[C@H](CC)c2ccc(OC)nc2)n2c1COCC2)c1ccccc1 [16j, 3,4-Dihydro-1H-pyrrolo[2,1-c][1,4]oxazine-6,8-dicarboxylic acid 6-{[(R)-1-(6-methoxy-pyridin-3-yl)-propyl]-amide}8-[((R)-1-phenyl-propyl)-amide]]",Time of inhibition of collapsibility (at -150 mbar),upper airway,for 120 min
same,IC50,hERG channel,> 10 µM
